The values below come from patent publication US20230279482A1, “COMPOSITIONS, METHODS AND USES FOR QUANTIFYING TRANSCRIPTION AND BIOSENSING OF SMALL MOLECULES USING A NOVEL TYPE VI CRISPR-CAS ASSAY” (THE REGENTS OF THE UNIVERSITY OF COLORADO, A BODY CORPORATE, priority 2020, published 2023).

The target in assay [1] is crcB fluoride riboswitch. To be noted: in-line probing; cited from earlier work.
For assay [2], the target named is T1, Cas13a (Leptotrichia wadei, UniProt U2PSH1).
T1 construct: His-tag (N, cleaved yes); twinstrep (N, cleaved yes); SUMO (N, cleaved yes); made in house; host or cells: BL21(DE3) Rosetta Escherichia coli
T1 sequence (U2PSH1 1-1182): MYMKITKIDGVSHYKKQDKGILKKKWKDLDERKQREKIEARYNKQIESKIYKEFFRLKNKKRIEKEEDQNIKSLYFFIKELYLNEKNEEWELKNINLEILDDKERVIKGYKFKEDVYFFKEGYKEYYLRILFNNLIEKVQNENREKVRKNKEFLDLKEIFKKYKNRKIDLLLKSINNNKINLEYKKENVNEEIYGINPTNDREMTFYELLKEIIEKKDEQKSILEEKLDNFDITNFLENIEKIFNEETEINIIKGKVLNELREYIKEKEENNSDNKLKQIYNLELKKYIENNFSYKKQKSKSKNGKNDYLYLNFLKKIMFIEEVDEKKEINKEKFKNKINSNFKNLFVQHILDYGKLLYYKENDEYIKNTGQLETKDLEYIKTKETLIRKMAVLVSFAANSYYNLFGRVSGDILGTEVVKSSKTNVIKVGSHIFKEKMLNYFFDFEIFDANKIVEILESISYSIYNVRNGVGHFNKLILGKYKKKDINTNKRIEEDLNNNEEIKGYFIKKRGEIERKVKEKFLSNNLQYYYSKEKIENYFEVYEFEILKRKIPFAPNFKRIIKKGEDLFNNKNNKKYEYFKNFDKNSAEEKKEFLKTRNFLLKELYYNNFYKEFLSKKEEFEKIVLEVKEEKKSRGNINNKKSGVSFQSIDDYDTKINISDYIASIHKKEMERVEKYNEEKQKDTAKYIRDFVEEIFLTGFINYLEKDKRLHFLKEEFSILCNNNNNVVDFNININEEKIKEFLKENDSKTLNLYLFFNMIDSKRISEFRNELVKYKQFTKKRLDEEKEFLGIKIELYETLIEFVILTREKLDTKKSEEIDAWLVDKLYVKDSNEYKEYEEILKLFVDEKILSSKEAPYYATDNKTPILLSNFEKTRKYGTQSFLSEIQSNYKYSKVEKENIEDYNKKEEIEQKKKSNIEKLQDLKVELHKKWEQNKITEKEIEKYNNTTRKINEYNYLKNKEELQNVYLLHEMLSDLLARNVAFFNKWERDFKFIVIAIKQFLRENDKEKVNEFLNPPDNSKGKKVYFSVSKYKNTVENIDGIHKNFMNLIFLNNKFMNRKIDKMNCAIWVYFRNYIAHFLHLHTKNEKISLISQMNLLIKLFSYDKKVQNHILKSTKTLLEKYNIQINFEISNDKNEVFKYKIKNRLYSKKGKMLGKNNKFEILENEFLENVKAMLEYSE
Kind of assay: SHERLOCK reactions without RNAP at varying sodium fluoride. The assay is classed as biochemical, Leptotrichia wadeii. The settings on record: FIG. 6A. As for the experimental part: Purification of LwaCas13a protein. LwaCas13a from Leptotrichia wadeii has a specific preference for collaterally cleaving poly-uracil ssRNA oligos and was used for various experiments in these examples. LwaCas13a was purified as follows. The expression plasmid (pC013) encoded LwaCas13a with an N-terminal His-tag, followed by twinstrep and SUMO tags. The plasmid was transformed into BL21(DE3) Rosetta Escherichia coli cells. 20 mL bacterial culture was grown overnight in Luria broth (LB) medium supplemented with 100 μM carbenicillin that was used to inoculate 1 L cultures in LB medium. The culture was shaken at 37° C. until the OD600 reached around 0.6. The culture was cooled down to approximately 20° C. in a cold water bath and protein expression was induced by adding 0.5 mM Isopropyl beta-D-1-thiogalactopyronoside (IPTG). The culture was grown in a 20° C. shaker for 16 hours. […] Protein concentration was determined using the absorbance at 280 nm and an extinction coefficient of 119800 M^−1 cm^−1; 1.5 mL of 47 μM protein was obtained from 2 liters of culture. […]
In other methods, SHERLOCK reactions were performed with purified target RNA as input, the concentration of the components, order of addition of components and measurement of fluorescence was carried out the same way as in the SPRINT reactions. […]

One may read the Kd as the equilibrium constant for the complex coming apart. In the case of `[F-].[Na+]` [fluoride, sodium fluoride], the Kd in assay [1] was around 60 µM. For the same compound, the “fluoride concentration at which Cas13a activity sharply dropped” value in assay [2] was “around 600 μM”.
